Laboratory results as given in patent US20230257396A1, “MACROCYCLES AND THEIR USE” (BLOSSOMHILL THERAPEUTICS, INC., priority 2020, published 2023).
Numbering of substitutions follows the chain as printed.

Legend:
Experiment in all cases: KINOMEscan kinase binding assay (Eurofins/DiscoveRx), % Ctrl
kinases [1] = biological target: T1, kinases (Homo sapiens, UniProt P36888, R834Q); conditions: 1 μM; FLT3(R834Q)
T1 construct: purchased Eurofins/DiscoveRx; host or cells: E. coli BL21-derived host (T7 phage display) for most kinases; HEK-293 for the rest
T1 sequence (P36888 27-993 R834Q): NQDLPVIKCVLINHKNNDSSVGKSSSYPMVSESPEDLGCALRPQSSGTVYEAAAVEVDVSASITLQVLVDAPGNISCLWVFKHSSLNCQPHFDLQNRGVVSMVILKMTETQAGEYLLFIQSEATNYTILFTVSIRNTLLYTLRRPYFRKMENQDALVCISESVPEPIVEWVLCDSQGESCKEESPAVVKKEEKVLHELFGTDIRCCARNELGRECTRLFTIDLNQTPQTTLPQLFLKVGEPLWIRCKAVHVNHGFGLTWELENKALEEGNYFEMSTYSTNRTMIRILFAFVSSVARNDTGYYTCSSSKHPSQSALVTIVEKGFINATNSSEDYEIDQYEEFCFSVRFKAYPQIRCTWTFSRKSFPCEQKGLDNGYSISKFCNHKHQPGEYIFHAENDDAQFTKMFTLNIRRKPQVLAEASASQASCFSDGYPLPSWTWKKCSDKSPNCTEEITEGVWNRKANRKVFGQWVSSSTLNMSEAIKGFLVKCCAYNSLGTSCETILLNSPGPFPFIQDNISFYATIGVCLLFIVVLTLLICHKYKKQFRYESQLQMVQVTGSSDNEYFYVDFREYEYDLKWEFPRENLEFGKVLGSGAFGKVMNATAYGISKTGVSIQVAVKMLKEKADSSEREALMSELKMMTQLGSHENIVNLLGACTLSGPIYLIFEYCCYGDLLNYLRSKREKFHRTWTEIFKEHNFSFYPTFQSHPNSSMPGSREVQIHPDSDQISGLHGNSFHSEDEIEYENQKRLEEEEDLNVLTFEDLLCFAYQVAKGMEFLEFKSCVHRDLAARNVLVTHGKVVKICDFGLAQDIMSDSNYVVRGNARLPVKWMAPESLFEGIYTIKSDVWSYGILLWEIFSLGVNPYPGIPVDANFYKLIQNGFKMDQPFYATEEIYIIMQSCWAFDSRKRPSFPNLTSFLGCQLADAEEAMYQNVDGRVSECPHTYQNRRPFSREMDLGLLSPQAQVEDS
Procedure: (§1) Kinase binding assays were performed at Eurofins/DiscoveRx using the general KINOMEscan Protocol (Fabian, M. A. et al., “A small molecule-kinase interaction map for clinical kinase inhibitors,” Nat. Biotechnol. 2005, 23(3):329-36). For most assays, kinase-tagged T7 phage strains were prepared in an E. coli host derived from the BL21 strain. E. coli were grown to log-phase and infected with T7 phage and incubated with shaking at 32° C. until lysis. The lysates were centrifuged and filtered to remove cell debris. The remaining kinases were produced in HEK-293 cells and subsequently tagged with DNA for qPCR detection. Streptavidin-coated magnetic beads were treated with biotinylated small molecule ligands for 30 minutes at room temperature to generate affinity resins for kinase assays. The liganded beads were blocked with excess biotin and washed with blocking buffer (SeaBlock (Pierce), 1% BSA, 0.05% Tween 20, 1 mM DTT) to remove unbound ligand and to reduce nonspecific binding. Binding reactions were assembled by combining kinases, liganded affinity beads, and test compounds in 1×binding buffer (20% SeaBlock, 0.17×PBS, 0.05% Tween 20, 6 mM DTT). All reactions were performed in polystyrene 96-well plates in a final volume of 0.135 mL. The assay plates were incubated at room temperature with shaking for 1 hour and the affinity beads were washed with washbuffer (1×PBS, 0.05% Tween 20). The beads were then re-suspended in elution buffer (1× PBS, 0.05% Tween 20, 0.5 μM non-biotinylated affinity ligand) and incubated at room temperature with shaking for 30 minutes. The kinase concentration in the eluates was measured by qPCR. Results for compounds tested in this assay at a given concentration are reported as “% Ctrl”, where lower numbers indicate stronger binding in the matrix.
(§2) (test compound signal-positive control signal)/(negative control signal-positive control signal) X100

kinases [2] = biological target: T2, kinases (Homo sapiens, UniProt P10721, V559D/V654A); conditions: 1 μM; KIT(V559D, V654A)
T2 construct: purchased Eurofins/DiscoveRx; host or cells: E. coli BL21-derived host (T7 phage display) for most kinases; HEK-293 for the rest
Procedure: as §1, §2

kinases [3] = biological target: T3, kinases (Homo sapiens, UniProt P09619); conditions: 1 μM; PDGFRB
T3 construct: purchased Eurofins/DiscoveRx; host or cells: E. coli BL21-derived host (T7 phage display) for most kinases; HEK-293 for the rest
Procedure: as §1, §2

kinases [4] = biological target: T4, kinases (Homo sapiens, UniProt P17948); conditions: 1 μM; FLT1
T4 construct: purchased Eurofins/DiscoveRx; host or cells: E. coli BL21-derived host (T7 phage display) for most kinases; HEK-293 for the rest
Procedure: as §1, §2

kinases [5] = biological target: T5, kinases (Homo sapiens, UniProt P10721, T670I/V559D); conditions: 1 μM; KIT(V559D, T670I)
T5 construct: purchased Eurofins/DiscoveRx; host or cells: E. coli BL21-derived host (T7 phage display) for most kinases; HEK-293 for the rest
Procedure: as §1, §2

kinases [6] = biological target: T6, kinases (Homo sapiens, UniProt P36888); conditions: 1 μM
T6 construct: purchased Eurofins/DiscoveRx; host or cells: E. coli BL21-derived host (T7 phage display) for most kinases; HEK-293 for the rest
T6 sequence (P36888 27-993): T1 sequence (P36888 27-993 R834Q) with Q808R
Procedure: as §1, §2

T4 sequence (P17948 27-1338): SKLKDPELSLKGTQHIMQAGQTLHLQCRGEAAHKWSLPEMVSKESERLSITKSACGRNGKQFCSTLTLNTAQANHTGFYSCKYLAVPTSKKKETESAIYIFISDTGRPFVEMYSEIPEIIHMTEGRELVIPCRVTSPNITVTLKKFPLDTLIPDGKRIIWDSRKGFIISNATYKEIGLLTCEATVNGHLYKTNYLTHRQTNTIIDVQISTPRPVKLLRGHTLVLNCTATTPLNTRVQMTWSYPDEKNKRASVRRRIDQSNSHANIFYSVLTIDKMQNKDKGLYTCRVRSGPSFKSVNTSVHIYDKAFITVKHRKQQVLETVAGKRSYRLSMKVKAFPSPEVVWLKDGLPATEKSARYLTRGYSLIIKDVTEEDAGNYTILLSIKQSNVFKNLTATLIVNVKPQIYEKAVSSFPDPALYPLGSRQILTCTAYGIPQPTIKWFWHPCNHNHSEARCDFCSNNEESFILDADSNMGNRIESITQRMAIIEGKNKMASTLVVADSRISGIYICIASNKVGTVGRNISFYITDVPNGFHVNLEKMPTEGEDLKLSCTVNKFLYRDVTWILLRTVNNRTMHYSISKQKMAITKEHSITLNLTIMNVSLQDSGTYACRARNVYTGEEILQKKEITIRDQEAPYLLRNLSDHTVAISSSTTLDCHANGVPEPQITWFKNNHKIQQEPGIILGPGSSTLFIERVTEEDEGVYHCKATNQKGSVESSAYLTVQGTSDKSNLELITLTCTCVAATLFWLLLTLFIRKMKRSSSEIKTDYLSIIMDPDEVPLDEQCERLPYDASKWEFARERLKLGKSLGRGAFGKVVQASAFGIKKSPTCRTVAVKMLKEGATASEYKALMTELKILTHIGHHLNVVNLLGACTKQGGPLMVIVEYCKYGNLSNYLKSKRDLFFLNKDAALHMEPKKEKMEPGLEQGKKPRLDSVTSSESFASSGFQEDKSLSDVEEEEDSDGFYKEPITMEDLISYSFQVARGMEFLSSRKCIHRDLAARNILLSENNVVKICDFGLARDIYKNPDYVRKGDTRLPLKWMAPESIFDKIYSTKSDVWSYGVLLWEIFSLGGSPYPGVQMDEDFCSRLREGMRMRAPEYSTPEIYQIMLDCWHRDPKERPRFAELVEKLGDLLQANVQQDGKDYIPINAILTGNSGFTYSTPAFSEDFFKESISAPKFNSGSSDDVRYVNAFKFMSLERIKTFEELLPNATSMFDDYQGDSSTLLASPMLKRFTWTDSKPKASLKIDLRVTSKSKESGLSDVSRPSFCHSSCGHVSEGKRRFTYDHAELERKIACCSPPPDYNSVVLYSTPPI
T3 sequence (P09619 33-1106): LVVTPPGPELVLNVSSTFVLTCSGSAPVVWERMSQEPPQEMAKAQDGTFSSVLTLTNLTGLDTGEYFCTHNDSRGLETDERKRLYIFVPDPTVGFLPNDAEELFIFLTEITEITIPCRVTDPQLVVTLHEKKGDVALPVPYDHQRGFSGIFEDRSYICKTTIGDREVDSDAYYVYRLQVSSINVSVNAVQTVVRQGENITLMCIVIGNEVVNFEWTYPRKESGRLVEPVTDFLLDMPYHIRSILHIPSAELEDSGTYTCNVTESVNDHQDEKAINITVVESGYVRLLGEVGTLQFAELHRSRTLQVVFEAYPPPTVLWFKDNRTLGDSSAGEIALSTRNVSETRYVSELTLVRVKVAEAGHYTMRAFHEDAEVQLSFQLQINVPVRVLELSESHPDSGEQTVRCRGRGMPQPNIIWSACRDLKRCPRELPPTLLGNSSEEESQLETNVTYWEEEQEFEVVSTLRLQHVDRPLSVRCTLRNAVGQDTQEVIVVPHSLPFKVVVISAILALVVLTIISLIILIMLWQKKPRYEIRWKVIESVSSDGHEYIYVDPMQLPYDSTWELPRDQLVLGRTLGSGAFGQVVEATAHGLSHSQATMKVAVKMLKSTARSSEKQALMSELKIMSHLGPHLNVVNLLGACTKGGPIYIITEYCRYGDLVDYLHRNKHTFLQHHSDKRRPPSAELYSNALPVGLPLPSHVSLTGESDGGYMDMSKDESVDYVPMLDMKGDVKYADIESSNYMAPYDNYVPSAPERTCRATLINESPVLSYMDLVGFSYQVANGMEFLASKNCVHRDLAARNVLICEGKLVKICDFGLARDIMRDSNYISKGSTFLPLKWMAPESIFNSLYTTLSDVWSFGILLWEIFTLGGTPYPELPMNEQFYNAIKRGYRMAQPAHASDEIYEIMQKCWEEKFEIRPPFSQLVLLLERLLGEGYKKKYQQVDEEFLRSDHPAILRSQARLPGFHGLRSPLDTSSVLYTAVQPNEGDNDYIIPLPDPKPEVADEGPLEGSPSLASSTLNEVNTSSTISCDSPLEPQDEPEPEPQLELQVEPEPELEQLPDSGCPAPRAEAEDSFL
T2 sequence (P10721 26-976 V559D/V654A): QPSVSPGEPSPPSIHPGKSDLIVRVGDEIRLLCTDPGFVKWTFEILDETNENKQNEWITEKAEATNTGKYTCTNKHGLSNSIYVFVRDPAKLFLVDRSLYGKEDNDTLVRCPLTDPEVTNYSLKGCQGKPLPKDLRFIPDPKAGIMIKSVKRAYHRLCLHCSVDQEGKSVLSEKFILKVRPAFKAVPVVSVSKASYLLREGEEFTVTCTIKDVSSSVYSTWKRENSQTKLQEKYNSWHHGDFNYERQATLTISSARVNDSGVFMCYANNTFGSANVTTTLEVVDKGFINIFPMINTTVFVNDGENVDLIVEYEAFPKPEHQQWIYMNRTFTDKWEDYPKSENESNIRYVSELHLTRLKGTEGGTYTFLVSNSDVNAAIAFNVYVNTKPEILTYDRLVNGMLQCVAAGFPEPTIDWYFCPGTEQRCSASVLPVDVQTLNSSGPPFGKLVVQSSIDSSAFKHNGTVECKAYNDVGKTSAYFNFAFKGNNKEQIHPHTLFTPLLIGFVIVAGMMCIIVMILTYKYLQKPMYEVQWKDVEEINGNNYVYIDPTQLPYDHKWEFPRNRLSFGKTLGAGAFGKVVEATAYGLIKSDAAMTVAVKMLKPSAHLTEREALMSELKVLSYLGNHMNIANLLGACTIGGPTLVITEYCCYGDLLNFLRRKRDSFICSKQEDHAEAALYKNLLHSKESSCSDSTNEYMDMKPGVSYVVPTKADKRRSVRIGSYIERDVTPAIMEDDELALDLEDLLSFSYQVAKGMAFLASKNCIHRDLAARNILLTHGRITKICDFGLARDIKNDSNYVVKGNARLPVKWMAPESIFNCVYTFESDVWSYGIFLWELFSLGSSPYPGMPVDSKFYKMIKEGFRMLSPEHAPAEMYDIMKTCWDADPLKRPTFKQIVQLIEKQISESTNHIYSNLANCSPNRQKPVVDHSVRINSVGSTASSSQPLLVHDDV
T5 sequence (P10721 26-976 V559D/T670I): as the sequence (P10721 26-976 V559D/V654A) above, with A629V, T645I counted along it

Row | SMILES | % Ctrl, FLT3(R834Q) (kinases [1]) [% Ctrl] | % Ctrl, KIT(V559D, V654A) (kinases [2]) [% Ctrl] | % Ctrl, PDGFRB (kinases [3]) [% Ctrl] | % Ctrl, FLT1 (kinases [4]) [% Ctrl] | % Ctrl, KIT(V559D, T670I) (kinases [5]) [% Ctrl] | % Ctrl, FLT3 (kinases [6]) [% Ctrl] | % Ctrl, FLT3-autoinhibited (kinases [6]) [% Ctrl]
1 | Cc1cc2c([nH]1)/C=C1\C(=O)Nc3ccc(nc31)-c1ccccc1OCCCNC2=O [Ex.22, [3a(4)Z]-6-methyl-9,10,11,12-tetrahydro-1,18-(ethanediylidene)dipyrrolo[3,2-g:3′,4′-j][1,5,12]benzoxadiazacyclopentadecine-3,8(2H,5H)-dione] | 97 | 100 | 100 | 100 | 100 | 81 | 100
2 | Cc1cc2c([nH]1)/C=C1\C(=O)Nc3ccc(cc31)-c1ccnn1CCOCCNC2=O [Ex.39, [19a(20)Z]-2-methyl-6,7,9,10-tetrahydro-1H-15,17-(ethanediylidene)pyrazolo[1,5-d]dipyrrolo[3,4-h:2′,3′-k][1,4,14]oxadiazacyclohexadecine-4,19(5H,18H)-dione] | 93 | 91 | 91 | 95 | 85 | 100 | 85
3 | Cc1cc2c([nH]1)/C=C1\C(=O)Nc3cnc(nc31)N(C)CCCOCCN(C)C2=O [Ex.71, [17a(18)Z]-2,5,12-trimethyl-6,7,9,10,11,12-hexahydro-1H-13,15-(azenometheno)dipyrrolo[3,2-f:3′,4′-i][1,4,11,13]oxatriazacyclohexadecine-4,17(5H,16H)-dione] | 100 | 100 | 98 | 98 | 100 | 93 | 100
4 | Cc1cc2c([nH]1)/C=C1\C(=O)Nc3ccc(cc31)OCCOCCN(C)C2=O [Ex.91, [16a(17)Z]-2,5-dimethyl-6,7,9,10-tetrahydro-1H-12,14-(ethanediylidene)dipyrrolo[3,2-i:3′,4′-l][1,4,7]dioxazacyclopentadecine-4,16(5H,15H)-dione] | 29 | 8 | 55 | 83 | 34 | 11 | 38
5 | Cc1cc2c([nH]1)/C=C1\C(=O)Nc3ccc(cc31)CN(C)C(=O)COCCNC2=O [Ex.111, [17a(18)Z]-2,11-dimethyl-6,7,11,12-tetrahydro-1H-13,15-(ethanediylidene)dipyrrolo[3,2-f:3′,4′-i][1,4,14]oxadiazacyclohexadecine-4,10,17(5H,9H,16H)-trione] | 39 | 62 | 88 | 46 | 96 | 45 | 95
6 | Cc1cc2c([nH]1)/C=C1\C(=O)Nc3cnc(cc31)-c1cnn(C)c1COCCNC2=O [Ex.123, [3a(4)Z]-6,14-dimethyl-10,11,13,14-tetrahydro-2H-17,1-(azenometheno)pyrazolo[4,3-m]dipyrrolo[3,2-f:3′,4′-i][1,4]oxazacyclopentadecine-3,8(5H,9H)-dione] | 100 | 79 | 94 | 96 | 97 | 87 | 100
